Measured values taken from ChEMBL document CHEMBL2029199, “Pyrazole and pyrimidine phenylacylsulfonamides as dual Bcl-2/Bcl-xL antagonists” (Bioorg Med Chem Lett, 2012).
The source made the active and inactive calls. No cut-off for these calls is given here.

What was measured:
Bcl-2-like protein 1 = Bcl-2-like protein 1 (Homo sapiens, UniProt Q07817); test: Inhibition of biotin-labelled Bcl-xL using [FAM]-IWIAQELRRIGDEFNAYY-NH2 as substrate after 60 mins by FRET analysis
MV4-11 [1] = test: Induction of BAK oligomerization in mitochondria isolated from human MV411 cells after 40 mins by Western blotting analysis; assay type: functional
[2] = Cytotoxicity against human SU-DHL4 cells after 72 hrs by firefly luciferase-based assay in presence of 2% fetal calf serum; assay type: functional, cell-based, SUD4; settings: SU-DHL-4, 72 h
MV4-11 [3] = test: Cytotoxicity against human MV411 cells after 72 hrs by firefly luciferase-based assay in presence of 2% fetal calf serum; assay type: functional, cell-based; settings: MV4-11, 72 h
MV4-11 [4] = test: Induction of cytochrome C release in mitochondria isolated from human MV411 cells after 40 mins by Western blotting analysis; assay type: functional
MV4-11 [5] = test: Induction of mitochondria depolarization in human MV411 cells at 3 uM after 7 hrs by flow cytometry; assay type: functional
[6] = biological target: Apoptosis regulator Bcl-2 (Homo sapiens, UniProt P10415); test: Inhibition of GST-tagged Bcl2 using [FAM]-IWIAQELRRIGDEFNAYY-NH2 as substrate after 60 mins by fluorescence polarization assay
MV4-11 [7] = test: Induction of BAK oligomerization in mitochondria isolated from human MV411 cells at 0.1 uM after 40 mins by Western blotting analysis; assay type: functional
MV4-11 [8] = test: Induction of cytochrome C release in mitochondria isolated from human MV411 cells at 0.1 uM after 40 mins by Western blotting analysis; assay type: functional
MV4-11 [9] = test: Cytotoxicity against human MV411 cells after 72 hrs by firefly luciferase-based assay in presence of 10% fetal calf serum; assay type: functional, cell-based; settings: MV4-11, 72 h
MV4-11 [10] = test: Induction of BAK oligomerization in mitochondria isolated from human MV411 cells at 1 uM after 40 mins by Western blotting analysis; assay type: functional

Sequence of Apoptosis regulator Bcl-2 (P10415 whole entry): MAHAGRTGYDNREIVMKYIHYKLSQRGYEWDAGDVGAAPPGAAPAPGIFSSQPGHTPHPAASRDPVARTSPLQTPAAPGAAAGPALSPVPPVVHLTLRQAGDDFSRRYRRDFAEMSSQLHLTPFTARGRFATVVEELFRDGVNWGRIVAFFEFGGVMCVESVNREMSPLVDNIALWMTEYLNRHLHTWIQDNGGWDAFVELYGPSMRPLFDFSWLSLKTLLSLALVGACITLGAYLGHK
Sequence of Bcl-2-like protein 1 (Q07817 whole entry): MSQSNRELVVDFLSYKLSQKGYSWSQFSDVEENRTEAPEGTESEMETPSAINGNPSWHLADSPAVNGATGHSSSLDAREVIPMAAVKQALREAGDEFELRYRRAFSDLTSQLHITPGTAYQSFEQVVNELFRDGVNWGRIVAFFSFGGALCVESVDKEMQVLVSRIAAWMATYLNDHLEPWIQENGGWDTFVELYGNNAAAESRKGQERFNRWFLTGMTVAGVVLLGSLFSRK

**Q.** With CCCN(CCC)c1ncc(Cl)c(-c2ccc(C(=O)NS(=O)(=O)c3ccc4cccc(Cl)c4c3)cc2C(=O)N2Cc3ccccc3C[C@H]2CO)n1 as the compound, how does the IC50 (Bcl-2-like protein 1) read?
**A.** 9 nM

**Q.** What about the Activity (MV4-11 [1]) of the same compound?
**A.** Dose-dependent effect

**Q.** What about the IC50 [2] of the same compound?
**A.** 3790 nM

**Q.** And the IC50 (MV4-11 [3])?
**A.** 330 nM

**Q.** And the Activity (MV4-11 [4])?
**A.** Dose-dependent effect

**Q.** And the Activity (MV4-11 [5])?
**A.** 25%

**Q.** And the IC50 [6]?
**A.** 9 nM

**Q.** With CCCCc1c(-c2ccc(C(=O)NS(=O)(=O)c3ccc4ccccc4c3)cc2C(=O)N2CCc3ccccc3C2)c(CO)nn1-c1cccc(CO)c1 as the compound, how does the IC50 (Bcl-2-like protein 1) read?
**A.** 15 nM

**Q.** And the IC50 [2]?
**A.** > 10000 nM

**Q.** What about the IC50 (MV4-11 [3]) of the same compound?
**A.** 5060 nM

**Q.** What about the Activity (MV4-11 [7]) of the same compound?
**A.** Active

**Q.** And the Activity (MV4-11 [8])?
**A.** Active

**Q.** And the IC50 [6]?
**A.** 71 nM

**Q.** For CCCCN(CCCC)c1nccc(-c2ccc(C(=O)NS(=O)(=O)c3ccc4ccc(I)cc4c3)cc2C(=O)N2CCc3ccccc3C2)n1, which IC50 (Bcl-2-like protein 1) is on record?
**A.** 970 nM

**Q.** And the IC50 [6]?
**A.** 140 nM

**Q.** Which IC50 [6] does the source give for CCCCc1c(-c2ccc(C(=O)NS(=O)(=O)CC[Si](C)(C)C)cc2C(=O)N2CCc3ccccc3C2)c(CO)nn1-c1ccccc1 here?
**A.** 190 nM

**Q.** Which IC50 (Bcl-2-like protein 1) does the source give for CCCN(CCC)c1ncc(Cl)c(-c2ccc(C(=O)NS(=O)(=O)c3ccc4cccc(Cl)c4c3)cc2C(=O)N2Cc3ccccc3C[C@H]2CN)n1 here?
**A.** 14 nM

**Q.** What about the Activity (MV4-11 [1]) of the same compound?
**A.** Dose-dependent effect

**Q.** And the IC50 [2]?
**A.** 6640 nM

**Q.** What about the IC50 (MV4-11 [3]) of the same compound?
**A.** 330 nM

**Q.** And the Activity (MV4-11 [4])?
**A.** Dose-dependent effect

**Q.** And the IC50 (MV4-11 [9])?
**A.** 730 nM

**Q.** What about the Activity (MV4-11 [5]) of the same compound?
**A.** 25%

**Q.** What about the IC50 [6] of the same compound?
**A.** 15 nM

**Q.** Which IC50 (Bcl-2-like protein 1) does the source give for CCCCc1c(-c2ccc(C(=O)NS(=O)(=O)c3ccc4ccccc4c3)cc2C(=O)N2CCc3ccccc3C2)c(C(=O)OCC)nn1-c1ccccc1 here?
**A.** 42 nM

**Q.** And the IC50 [6]?
**A.** 660 nM

**Q.** Which IC50 (Bcl-2-like protein 1) does the source give for CCOC(=O)c1nn(-c2ccccc2)c(C)c1-c1ccc(C(=O)NS(=O)(=O)c2ccc3ccccc3c2)cc1C(=O)N1CCc2ccccc2C1 here?
**A.** 640 nM

**Q.** And the IC50 [6]?
**A.** 4190 nM

**Q.** Which IC50 (Bcl-2-like protein 1) does the source give for CCCCc1c(-c2ccc(C(=O)NS(=O)(=O)c3ccc4ccccc4c3)cc2C(=O)N2CCc3ccccc3C2)c(CO)nn1-c1ccc(CCCO)cc1 here?
**A.** 7 nM

**Q.** And the IC50 [6]?
**A.** 14 nM

**Q.** Which results are given for CCCCN(CCCC)c1nccc(-c2ccc(C(=O)NS(=O)(=O)c3ccc4c(c3)CCN4Cc3ccc(Cl)c(Cl)c3)cc2C(=O)N2CCc3ccccc3C2)n1?
**A.** IC50 (Bcl-2-like protein 1): 710 nM; IC50 [6]: 120 nM

**Q.** With CCCCN(CCCC)c1nccc(-c2ccc(C(=O)NS(=O)(=O)c3ccc4cccc(Cl)c4c3)cc2C(=O)N2CCc3ccccc3C2)n1 as the compound, how does the IC50 (Bcl-2-like protein 1) read?
**A.** 480 nM

**Q.** What about the IC50 [6] of the same compound?
**A.** 120 nM

**Q.** Which IC50 (Bcl-2-like protein 1) does the source give for CCCCc1c(-c2ccc(C(=O)NS(=O)(=O)c3ccc4ccccc4c3)cc2C(=O)N2CCc3ccccc3C2)c(C(=O)OCC)nn1-c1cccc(Oc2ccccc2)c1 here?
**A.** 470 nM

**Q.** And the IC50 [6]?
**A.** 140 nM

**Q.** For CCCCc1c(-c2ccc(C(=O)NS(=O)(=O)c3ccc4ccccc4c3)cc2C(=O)N2CCc3ccccc3C2)c(C(=O)OCC)nn1-c1ccc(Oc2ccccc2)cc1, which IC50 (Bcl-2-like protein 1) is on record?
**A.** 55 nM

**Q.** With CCCCc1c(-c2ccc(C(=O)NS(=O)(=O)c3ccc4ccccc4c3)cc2C(=O)N2CCc3ccccc3C2)c(CO)nn1-c1ccccc1 as the compound, how does the IC50 (Bcl-2-like protein 1) read?
**A.** 11 nM

**Q.** What about the IC50 [6] of the same compound?
**A.** 61 nM

**Q.** What does the source list for CCCCN(CCCC)c1nccc(-c2ccc(C(=O)NS(=O)(=O)c3ccc4ccccc4c3)cc2C(=O)N2Cc3ccccc3C[C@H]2CN)n1?
**A.** IC50 (Bcl-2-like protein 1): 160 nM; IC50 [6]: 430 nM

**Q.** For CCCCc1c(-c2ccc(C(=O)NS(=O)(=O)c3ccc4ccccc4c3)cc2C(=O)N2CCc3ccccc3C2)c(C(=O)OCC)nn1-c1ccc(OC)cc1, which IC50 (Bcl-2-like protein 1) is on record?
**A.** 48 nM

**Q.** And the IC50 [6]?
**A.** 1790 nM

**Q.** For CCCCc1c(-c2ccc(C(=O)NS(=O)(=O)c3ccc4ccccc4c3)cc2C(=O)N2Cc3ccccc3C[C@H]2CN)c(CO)nn1-c1ccccc1, which IC50 (Bcl-2-like protein 1) is on record?
**A.** 7 nM

**Q.** And the IC50 [6]?
**A.** 24 nM

**Q.** Which IC50 (Bcl-2-like protein 1) does the source give for CCCCc1c(-c2ccc(C(=O)NS(=O)(=O)c3ccc4ccccc4c3)cc2C(=O)N2CCc3ccccc3C2)c(CO)nn1-c1ccc(Oc2ccc(Cl)cc2)cc1 here?
**A.** 35 nM

**Q.** And the IC50 [6]?
**A.** 22 nM

**Q.** For CCCCN(CCCC)c1ncc(C)c(-c2ccc(C(=O)NS(=O)(=O)c3ccc4ccccc4c3)cc2C(=O)N2CCc3ccccc3C2)n1, which IC50 (Bcl-2-like protein 1) is on record?
**A.** 120 nM

**Q.** What about the IC50 [6] of the same compound?
**A.** 110 nM

**Q.** What does the source list for CCCCc1c(-c2ccc(C(=O)NS(=O)(=O)c3ccc4ccccc4c3)cc2C(=O)N2CCc3ccccc3C2)c(C(=O)O)nn1-c1ccccc1?
**A.** IC50 (Bcl-2-like protein 1): 30 nM; IC50 [6]: 170 nM

**Q.** Which results are given for CCCN(CCC)c1nccc(-c2ccc(C(=O)NS(=O)(=O)c3ccc4ccccc4c3)cc2C(=O)N2CCc3ccccc3C2)n1?
**A.** IC50 (Bcl-2-like protein 1): 250 nM; Activity (MV4-11 [10]): inactive; IC50 [6]: 150 nM

**Q.** For CCCCc1c(-c2ccc(C(=O)NS(=O)(=O)c3ccc4ccccc4c3)cc2C(=O)N2CCc3ccccc3C2)c(CO)nn1-c1ccc(Oc2ccccc2)cc1, which IC50 (Bcl-2-like protein 1) is on record?
**A.** 35 nM

**Q.** With CCCCN(CCCC)c1nccc(-c2ccc(C(=O)NS(=O)(=O)c3ccc4cccc(Cl)c4c3)cc2C(=O)N2Cc3ccccc3C[C@H]2CO)n1 as the compound, how does the IC50 (Bcl-2-like protein 1) read?
**A.** 130 nM

**Q.** And the IC50 [6]?
**A.** 160 nM

**Q.** Which results are given for CCCCc1c(-c2ccc(C(=O)NS(=O)(=O)c3ccc4cccc(Cl)c4c3)cc2C(=O)N2CCc3ccccc3C2)c(CO)nn1-c1ccc(Oc2cccc(Cl)c2)cc1?
**A.** IC50 (Bcl-2-like protein 1): 15 nM; IC50 [2]: 2020 nM; IC50 (MV4-11 [3]): 580 nM; IC50 [6]: 6 nM

**Q.** What does the source list for CCCCN(CCCC)c1ncc(Cl)c(-c2ccc(C(=O)NS(=O)(=O)c3ccc4ccccc4c3)cc2C(=O)N2CCc3ccccc3C2)n1?
**A.** IC50 (Bcl-2-like protein 1): 230 nM; IC50 [6]: 160 nM

**Q.** For CCCCc1c(-c2ccc(C(=O)NS(=O)(=O)CC)cc2C(=O)N2CCc3ccccc3C2)c(CO)nn1-c1ccc(Oc2cccc(Cl)c2)cc1, which IC50 (Bcl-2-like protein 1) is on record?
**A.** 140 nM

**Q.** What about the IC50 [6] of the same compound?
**A.** 190 nM

**Q.** With CCCCc1c(-c2ccc(C(=O)NS(=O)(=O)c3ccc4ccccc4c3)cc2C(=O)N2CCc3ccccc3C2)c(CO)nn1-c1ccc(CCO)cc1 as the compound, how does the IC50 (Bcl-2-like protein 1) read?
**A.** 6 nM

**Q.** Which IC50 (Bcl-2-like protein 1) does the source give for CCCCN(CCCC)c1nccc(-c2ccc(C(=O)NS(=O)(=O)c3ccc4ccccc4c3)cc2C(=O)N2CCc3ccccc3C2)n1 here?
**A.** 500 nM

**Q.** What about the IC50 [6] of the same compound?
**A.** 700 nM

**Q.** For CCCCc1c(-c2ccc(C(=O)NS(=O)(=O)c3ccc4ccccc4c3)cc2C(=O)N2CCc3ccccc3C2)c(CO)nn1-c1ccc(Oc2cccc(Cl)c2)cc1, which IC50 (Bcl-2-like protein 1) is on record?
**A.** 18 nM

**Q.** And the IC50 [2]?
**A.** 2350 nM

**Q.** And the IC50 (MV4-11 [3])?
**A.** 700 nM

**Q.** What about the Activity (MV4-11 [7]) of the same compound?
**A.** Active

**Q.** And the Activity (MV4-11 [5])?
**A.** 25%

**Q.** What about the Activity (MV4-11 [8]) of the same compound?
**A.** Active

**Q.** What about the IC50 [6] of the same compound?
**A.** 8 nM

**Q.** With CCCCc1c(-c2ccc(C(=O)NS(=O)(=O)c3ccc4ccccc4c3)cc2C(=O)N2Cc3ccccc3C[C@H]2CO)c(CO)nn1-c1ccccc1 as the compound, how does the IC50 [6] read?
**A.** 11 nM

**Q.** With CCCCOc1ccc(-n2nc(CO)c(-c3ccc(C(=O)NS(=O)(=O)c4ccc5ccccc5c4)cc3C(=O)N3CCc4ccccc4C3)c2CCCC)cc1 as the compound, how does the IC50 (Bcl-2-like protein 1) read?
**A.** 26 nM

**Q.** And the IC50 [2]?
**A.** 2490 nM

**Q.** And the IC50 (MV4-11 [3])?
**A.** 1430 nM

**Q.** And the IC50 [6]?
**A.** 45 nM

**Q.** With CCCCCS(=O)(=O)NC(=O)c1ccc(-c2c(CO)nn(-c3ccc(Oc4cccc(Cl)c4)cc3)c2CCCC)c(C(=O)N2CCc3ccccc3C2)c1 as the compound, how does the IC50 (Bcl-2-like protein 1) read?
**A.** 120 nM

**Q.** And the IC50 [6]?
**A.** 65 nM

**Q.** With CCCCc1c(-c2ccc(C(=O)NS(=O)(=O)c3ccc4ccccc4c3)cc2C(=O)N2CCc3ccccc3C2)c(CO)nn1-c1ccc(-c2ccccc2)cc1 as the compound, how does the IC50 (Bcl-2-like protein 1) read?
**A.** 13 nM

**Q.** And the IC50 [6]?
**A.** 7 nM
